Measured values: article PMC11278233, “The Composition of Triterpene Glycosides in the Sea Cucumber Psolus peronii: Anticancer Activity of the Glycosides against Three Human Breast Cancer Cell Lines and Quantitative Structure–Activity Relationships (QSAR)” (Marine Drugs, 2024)
Read-outs that look alike come from different tables or passages of the source.

Assays:
[1] = test system: MDA-MB-231 cells; assay: Colonogenic (colony formation) assay, MDA-MB-231; type: cell-based; conditions: Homo sapiens, 336 h, 14 days, read-out: inhibition of the growth of colonies
Procedure: (§1) The cancer cells (MDA-MB-231, MCF-7 and T-47D lines) were cultured on 6-well plates at a density of 1 × 10^3 per well in control media (MEM media, 10% FBS, 10,000 U/mL of penicillin and […] of streptomycin) or in media supplemented with different concentrations of the glycosides. The cells were incubated for 14 days at 37 °C in a 5% CO2 humidified incubator. Then, the colonies were fixed with methanol (25 min), stained with a 0.5% solution of crystal violet (25 min), washed with H2O and dried in air. Counting of the grown colonies was carried out using a BIO-PRINT-Cx4 Edge-Fixed Pad-Container (Vilber, Collegien, France) device and using the software Bio-Vision SOFTWARE User and service manual-v18.01 (Vilber, Collegien, France). The results are presented as % of colony inhibition in relation to the control.

[2] = test system: MCF-7 cells; assay: Wound healing (scratch) assay, MCF-7; type: cell-based, human; conditions: 1 and 2 μM, within 48 h, control migrated by 84.60 ± 2.12%
Procedure: (§2) To analyze the influence of the tested compounds on tumor cell migration, MCF-7 and MDA-MB-231 (5 × 10^5) cells attached to the plate’s plastic bottom were separated using a silicone insert from special migration plates (Culture-insert 2Well 24, ibiTreat). When the insert was removed, a gap of […] (according to the manufacturer’s data) between the cells was left. After 24 h, the cells were washed twice with PBS to remove cell debris and floating cells, treated with 1 and 2 μM of psolusosides A (2) and L (6) and placed in the real-time live cell imaging system Juli Stage (NanoEntek, Seoul, South Korea). Cells treated with the culture medium only were used as the control. The cell migration was analyzed in real time (15 min for each cycle). For the MDA-MB-231 cells, observations were carried out for 12 h (until complete healing of the wound area in the control); for MCF-7 cells, this time was 48 h. The results were processed using the program Juli^TM Stat (NanoEntek, South Korea).

[3] = in vitro; type: cell-based, human; conditions: human
[4] = test system: non-transformed epithelial cells of the mammary gland MCF-10A; assay: in vitro; type: cell-based, human
[5] = test system: T-47D cells; assay: Colonogenic (colony formation) assay, T-47D; type: cell-based, human; conditions: 1 μM, 14 days
Procedure: as §1

[6] = test system: human breast cancer cell line MCF-7; assay: cells; type: cell-based; conditions: for IC50: Homo sapiens, MCF7, 24 h, read-out: Cytotoxicity, IC50 µM MCF-7; for Selectivity Index MCF-7: ratio of IC50 for healthy (MCF-10A) and cancer cells
[7] = test system: MDA-MB-231 cells; assay: Wound healing (scratch) assay, MDA-MB-231; type: cell-based, human; conditions: 2 μM, within 12 h, control 99.83 ± 0.08%
Procedure: as §2

[8] = test system: human breast cancer cell line T-47D; assay: cells; type: cell-based; conditions: for IC50: Homo sapiens, T47D, 24 h, read-out: Cytotoxicity, IC50 µM T-47D; for Selectivity Index T-47D: ratio of IC50 for healthy (MCF-10A) and cancer cells
[9] = test system: triple-negative human breast cancer cell line MDA-MB-231; assay: cells; type: cell-based; conditions: for IC50: Homo sapiens; for Selectivity Index MDA-MB-231: ratio of IC50 for healthy (MCF-10A) and cancer cells
[10] = test system: human erythrocytes; assay: Hemolytic activity; type: cell-based; conditions: Erythrocyte, 1 h at 37 °C, lysis of 50% of erythrocytes
Procedure: A total of 450 g of human blood (B(III) Rh+) was used to obtain erythrocytes by centrifuging it three times for 5 min with phosphate-buffered saline (PBS) (pH 7.4) at 4 °C on the centrifuge LABOFUGE 400R (Heraeus, Hanau, Germany). Ice-cold PBS (pH 7.4) was used for resuspension of the erythrocyte residue to a final optical density of 1.5 at 700 nm, which was kept on ice. Then, 20 µL of the tested compound solutions was added to 180 µL of the erythrocyte suspension in V-bottom 96-well plates and exposed for 1 h at 37 °C. The layers were separated by centrifugation at 900 g for 10 min on the laboratory centrifuge LMC-3000 (Biosan, Riga, Latvia). A total of 100 µL of the supernatant was carefully decanted and transferred into a new flat plate. The values of erythrocyte lysis were measured on a microplate photometer Multiskan FC (Thermo Fisher Scientific, Waltham, MA, USA) at λ = 570 nm as the hemoglobin concentration in the supernatant. […] All the experiments were carried out in triple repetitions; p ≤ 0.05.

[11] = test system: MCF-7 cells; assay: Colonogenic (colony formation) assay, MCF-7; type: cell-based; conditions: Homo sapiens, MCF7, 336 h, 14 days
Procedure: as §1

[12] = MDA-MB-231, 24 h, read-out: Cytotoxicity, IC50 µM MDA-MD-231
[13] = MDA-MB-231, MTT assay, 48 h incubation, read-out: IC50 against MDA-MB-231 cells (antiproliferative effect)
[14] = MDA-MB-231, MTT assay, 72 h incubation, read-out: IC50 against MDA-MB-231 cells (antiproliferative effect)

Structure (SMILES)	reduction of the migration of cells to the scratch area [2]	IC50 at 24 h [3] [µM]	cytotoxicity to non-transformed MCF-10A cells (result in words) [4]	IC50 [6] [µM]	Selectivity Index MCF-7 ([6]; 24 h of exposition)	Selectivity Index MCF-7 ([6]; 48 h of exposition)	Selectivity Index MCF-7 ([6]; 72 h of exposition)	overgrowth of the wound area (migration) [7] [%]	IC50 [8] [µM]	Selectivity Index T-47D ([8]; 24 h of exposition)	Selectivity Index T-47D ([8]; 48 h of exposition)	Selectivity Index T-47D ([8]; 72 h of exposition)	IC50 [9, 12] [µM]	IC50 [9, 13] [µM]	IC50 [9, 14] [µM]	Selectivity Index MDA-MB-231 ([9]; 24 h of exposition)	Selectivity Index MDA-MB-231 ([9]; 48 h of exposition)	Selectivity Index MDA-MB-231 ([9]; 72 h of exposition)	IC50 [10] [µM]	inhibition at 1 µM [11] [%]	further results
C=C(C)CCC[C@]1(C)OC(=O)[C@]23CC=C4[C@@H](CC[C@H]5C(C)(C)[C@@H](O[C@@H]6OC[C@@H](O[C@@H]7O[C@H](COS(=O)(=O)[O-])[C@@H](O)[C@H](O)[C@H]7O)[C@H](O)[C@H]6O[C@@H]6O[C@H](C)[C@@H](O[C@@H]7O[C@H](COS(=O)(=O)[O-])[C@@H](O)[C@H](O[C@@H]8O[C@H](COS(=O)(=O)[O-])[C@@H](O)[C@H](OC)[C@H]8O)[C@H]7O)[C@H](O)[C@H]6O)CC[C@]45C)[C@]2(C)CC(=O)[C@@H]31.[Na+].[Na+].[Na+] [psolusoside L (6), psolusoside L]	33–42%	33.08 ± 0.29	slightly cytotoxic	13.7 ± 0.31	2.41	1.33	0.66	6.03 ± 0.02	5.45 ± 0.04	6.07	1.25	0.91	6.39 ± 0.3	1.67 ± 0.16	1.24 ± 0.02	5.18	5.83	4.56	1.83 ± 0.14	19.6 ± 0.24	inhibition at 2 µM ([1]; 2 μM): 90.4 ± 0.92%; growth of colonies (result in words) [5]: completely blocked; inhibition at 2 µM [11]: 89.67 ± 0.28%; inhibition at 5 µM [11]: 97.83 ± 0.25%
C=C(C)CCC[C@]1(C)OC(=O)[C@]23CC=C4[C@@H](CC[C@H]5C(C)(C)[C@@H](O[C@@H]6OC[C@@H](O)[C@H](O)[C@H]6O[C@@H]6O[C@H](C)[C@@H](O[C@@H]7O[C@H](COS(=O)(=O)[O-])[C@@H](O)[C@H](O[C@@H]8O[C@H](COS(=O)(=O)[O-])[C@@H](O)[C@H](OC)[C@H]8O)[C@H]7O)[C@H](O)[C@H]6O)CC[C@]45C)[C@]2(C)CC(=O)[C@@H]31.[Na+].[Na+] [psolusoside A (2), psolusoside A]	33–42%	> 50	not cytotoxic	11.2 ± 0.4	4.47	1.84	0.59	30.01 ± 0.16	9.52 ± 0.13	5.25	0.86	0.76	6.09 ± 0.87	3.87 ± 0.38	3.27 ± 0.27	8.21	2.18	2.09	1.05 ± 0.12	33.8 ± 2.64	inhibition at 0.5 µM ([1]; 0.5 μM): 40.6 ± 5.62%; inhibition at 1 µM ([1]; 1 μM): 88.76 ± 0.81%; inhibition at 2 µM [11]: 54.9 ± 1.92%; inhibition at 5 µM [11]: 96.88 ± 0.96%
